Measurements: EPA's ToxValDB 9.5 (doi:10.2903/j.efsa.2005.28r)
≈ marks a conversion by molar mass, not a printed value.

Columns and labels:
Aphidius rhopalosiphi = conditions: acute; duration: 7 days; mortality
Apis mellifera = conditions: acute, mortality
Bibionidae = conditions: chronic/long-term, duration: 28 days
Bird = conditions: reproductive; oral; feed
Colinus virginianus = conditions: acute, oral, mortality
Daphnia magna = conditions: chronic/long-term; duration: 21 days; reproduction
Oncorhynchus mykiss = conditions: acute; duration: 96 hours; mortality
Pimephales promelas = conditions: chronic/long-term; duration: 35 days; growth
Tagia sp. = conditions: acute; duration: 14 days; mortality

Compound: CCCN(CCC)c1c([N+](=O)[O-])cc(C(F)(F)F)cc1[N+](=O)[O-] [Trifluralin]
- LEL (Aphidius rhopalosiphi): 1200 g/ha
- LD50 (Apis mellifera; duration: 48 hours, dermal): > 100 µg/piece
- LD50 (Apis mellifera; oral, unspecified): > 100 µg/piece
- NOEC (Bibionidae; development): 0.25 mg/L
- NOEC (Bibionidae; mortality): 810 mg/kg
- NOEC (Bird): 1000 mg/kg
- LC50 (Colinus virginianus; diet): 2970 mg/kg
- LD50 (Colinus virginianus): > 2250 mg/kg
- NOEC (Daphnia magna): 0.0507 mg/L
- LC50 (Oncorhynchus mykiss): 0.088 µg/mL (≈ 0.262 µM)
- NOEC (Pimephales promelas): 0.0003 mg/L
- LD50 (Rattus norvegicus; acute, oral, mortality): > 5000 mg/kg
- LOAEL (Rattus norvegicus; chronic, duration: 2 years, histopathology: neoplastic): 30 mg/kg-day
- NOAEL (Rattus norvegicus; reproduction developmental): 148 mg/kg-day
- NOAEL (Rattus norvegicus; subchronic, duration: 90 days): 2.6 mg/kg-day
- LC50 (Tagia sp.): > 1000 mg/kg
